Experimental data: ChEMBL document CHEMBL3638614, “Diaza-spiro[5.5]undecanes” (2013)

Experiments:
[1] = biological target: T1, Orexin/Hypocretin receptor type 1 (Homo sapiens, UniProt O43613); assay: (§1) Radioligand Binding Assay : Radioligand binding assay using orexin receptor.
T1 sequence (O43613 whole entry): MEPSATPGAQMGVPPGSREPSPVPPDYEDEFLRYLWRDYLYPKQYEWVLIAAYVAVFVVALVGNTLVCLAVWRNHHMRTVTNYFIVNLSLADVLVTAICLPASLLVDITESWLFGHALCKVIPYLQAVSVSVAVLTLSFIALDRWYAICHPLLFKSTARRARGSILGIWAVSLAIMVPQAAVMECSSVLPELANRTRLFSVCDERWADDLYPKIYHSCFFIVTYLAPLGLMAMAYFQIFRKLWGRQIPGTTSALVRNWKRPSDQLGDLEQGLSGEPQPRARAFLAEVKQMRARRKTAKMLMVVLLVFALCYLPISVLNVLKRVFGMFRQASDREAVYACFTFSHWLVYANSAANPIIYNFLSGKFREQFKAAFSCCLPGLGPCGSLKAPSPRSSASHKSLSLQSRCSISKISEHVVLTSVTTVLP

Orexin receptor type 2 [2] = biological target: T2, Orexin receptor type 2 (Homo sapiens, UniProt O43614); assay: as §1
T2 sequence (O43614 whole entry): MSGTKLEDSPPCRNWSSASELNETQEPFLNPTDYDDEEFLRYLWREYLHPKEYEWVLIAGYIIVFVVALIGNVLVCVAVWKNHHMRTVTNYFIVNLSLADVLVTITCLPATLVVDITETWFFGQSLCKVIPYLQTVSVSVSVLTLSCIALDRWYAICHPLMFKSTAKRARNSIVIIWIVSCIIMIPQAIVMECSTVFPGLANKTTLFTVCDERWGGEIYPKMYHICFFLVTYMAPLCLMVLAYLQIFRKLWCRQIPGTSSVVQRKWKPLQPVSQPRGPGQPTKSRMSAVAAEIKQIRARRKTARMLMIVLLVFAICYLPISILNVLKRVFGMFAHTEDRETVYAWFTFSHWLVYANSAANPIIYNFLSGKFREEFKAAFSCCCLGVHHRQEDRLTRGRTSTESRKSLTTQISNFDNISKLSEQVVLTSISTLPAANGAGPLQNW

[3] = biological target: T1, Orexin/Hypocretin receptor type 1; assay: (§2) FLIPR Assay : FLIPR assay using orexin receptor.
Orexin receptor type 2 [4] = biological target: T2, Orexin receptor type 2; assay: as §2

Compound | Kd [1] [µM] | Kd (Orexin receptor type 2 [2]) [µM] | Ki [3] [µM] | Ki (Orexin receptor type 2 [4]) [µM]
O=C1N(Cc2cccc3ccccc23)CCCC12CCN(c1nc3ccccc3[nH]1)CC2 | > 10 | 0.755 | 2.46 | 0.126
Cn1c(N2CCC3(CCCN(Cc4ccccc4)C3=O)CC2)nc2ccccc21 | > 10 | > 10 | – | –
O=C1N(Cc2cc(Cl)cc3c2OCOC3)CCCC12CCN(c1cnc3ccccc3n1)CC2 | – | – | 1.54 | 0.739
